Data from article PMC9313812, “The Pseudo‐Natural Product Rhonin Targets RHOGDI” (Angewandte Chemie (International Ed. in English), 2022).
Each block holds one molecule with its values, some of them ahead of it.

Tests used:
Shh-LIGHT2 cells = test: GLI-dependent reporter gene assay (RGA); format: cell-based; details: Shh Light2; Figure 2a; mean of three independent experiments
Method: using a three-fold dilution series starting from a concentration of 30 μM. Half-maximal inhibitory concentrations (IC50) were calculated using the Quattro software suite (Quattro Research, Planegg, Germany) or GraphPad Prism 7 (GraphPad, USA). […]
GLI-dependent reporter gene assay
Shh-LIGHT2 cells were seeded (2.5×10^4 per well) in 96-well plates. After incubation for 16 h, medium was replaced by low serum-containing medium (0.5% FCS) supplemented with 1.5 μM purmorphamine and various concentrations of the compounds or DMSO as a control and cells were incubated for 48 h. […]

C3H/10T1/2 cells = test: Osteoblast differentiation assay (ODA): purmorphamine-induced osteogenesis, alkaline phosphatase luminescence readout; format: cell-based, mouse; details: for IC50: Mus musculus, C3H 10T1/2, Table S7, 1.5 µM purmorphamine, 96 h, mean ± SD, n=3, highest test concentration 30 µM, read-out: Osteogenesis IC50
Method: Supplementary Table S7. Inhibition of osteogenesis assay. C3H10T1/2 cells were incubated with 1.5 µM purmorphamine and compounds or DMSO as a control for 96 h. The activity of alkaline phosphatase was assessed by means of a luminescence readout. Values for cells, which were treated with DMSO and purmorphamine, were set to 100% and data were measured in […]
concentration of 30 µM. All data are mean values of three independent experiments (n = 3) ± […]
Compound Osteogenesis IC50
(§1) (1 picture or pasted object on this page, not shown here)
NIH/3T3 cells were obtained from DSMZ, Germany (DSMZ ACC 59) and were cultured in DMEM (high glucose) supplemented with 10% heat-inactivated FCS, 2 mM L -glutamine and 1 mM sodium pyruvate. Shh -LIGHT2 cells (NIH/3T3 cells stably transfected with a Gli-responsive firefly luciferase reporter plasmid and a pRL-TK constituitive Renilla luciferase expression vector)[4] were cultured in the same culturing medium supplemented with 400 μg ml −1 G418 and 150 μg ml −1 Zeocin as selecting agents. The murine osteoblasts C3H/10T1/2 (ATCC CCL-226) were obtained from ATCC, USA and were cultured in DMEM (high glucose) supplemented with 10% heat-inactivated FCS, 6 mM L -glutamine, 1 mM sodium pyruvate. HEK293T cells (ATCC, England) were grown in DMEM containing 10% FBS, 100 U ml −1 penicillin and 0.1 mg ml −1 streptomycin. All cell lines were maintained at 37 °C and 5% CO 2 in a humidified atmosphere. All the cell lines were regularly assayed for mycoplasma and were confirmed to be mycoplasma-free. Transfection of DNA constructs and siRNAs were performed using FuGENE HD (Promega), Lipofectamine® LTX (Invitrogen) and DharmaFECT™ (GE Healthcare) transfection reagent according to the manufacturer’s […]
Osteoblast differentiation assay
The osteoblast differentiation assay was performed by the Compound Management and Screening Center (COMAS) in Dortmund, Germany. C3H/10T1/2 cells were seeded (800 per well) in white 384-well plates or (6000 per well) in 96-well plates. After incubation for 16 h, compounds or DMSO were added to the cells using the acoustic nanoliter dispenser ECHO 520 (Labcyte) and osteogenesis was induced with 1.5 µM purmorphamine. Plates were incubated for 96 h at 37 °C and 5% CO2. Alkaline phosphatase activity was measured by replacing the medium with osteogenesis-lysis buffer (lysis buffer: 100 mM Tris pH 9.5, 250 mM NaCl, 25 mM MgCl2, 1% Triton X-100, sterile filtered) containing 1:100 chemiluminescent substrate CDP-Star® (Promega, 384-well plates: 35 µL, 96-well plates: 50 µL) for one hour in the dark at 25 °C. In 384-well plates, the luminescence was monitored using the Paradigm plate reader (Molecular Devices, USA), whereas Spark plate reader (Tecan, Austria) was used to measure luminescence in 96-well plates. Dose-response analyses were performed for all hit compounds […]
using a three-fold dilution series starting from a concentration of 30 μM. Half-maximal inhibitory concentrations (IC50) were calculated using the Quattro software suite (Quattro Research, Planegg, Germany) or GraphPad Prism 7 (GraphPad, USA).
The effect of test compounds on the viability of C3H/10T1/2 cells was determined by CellTiter-Glo Luminescence cell viability assay (Promega). Cells were treated as described for the osteogenesis assay prior to addition of the CellTiter-Glo® reagent according to manufacturer’s protocol. Compounds causing at least a 50% reduction in the osteogenesis assay and retaining cell viability of at least 80% were considered as hits. Dose-response analyses were performed for all hit compounds using a three-fold dilution series starting from a concentration of 30 μM. Half-maximal inhibitory concentrations (IC50) were calculated using the Quattro software suite (Quattro Research GmbH). […]

C3H10T1/2 cells = test: Osteoblast differentiation in presence of low or high SAG; format: cell-based, mouse; details: low and high concentration of SMO agonist SAG
Method: cilia were stained with an antibody against acetylated tubulin. SMO was marked with an anti-SMO antibody and DAPI was used to stain the nuclei. For quantification of cilia, at least 100 cilia per condition and biological replicate were analyzed for the intensity of anti-acetylated tubulin antibody staining. The results of one representative biological replicate are shown and each data point represents the intensity value of one single cilium. Statistical significance was evaluated using an unpaired t-test with a confidence interval of 95 % (p ≤ n.s.). (d and e) Influence Vismodegib (d) or GANT61 (e) on osteoblast diffe rentation of C3H10T1/2 cells in presence of low (0.1 µM) or high (1 µM) concentration of the SMO agonist SAG. Data are mean values of three independent biological replicates (n= 3) ± SD. (f) Fluorescent polarization measurements were performed by titrating 1 μM TAMRA-GDP-bound RAC1 with increasing […]
µM Rhonin. Data are mean values (n = 3) ± SD. (g) Structure of the lysine-reactive probe […]
as §1

NIH/3T3 lysate proteins [1] = molecular target: T1, NIH/3T3 lysate proteins (Mus musculus, UniProt Q99PT1); test: Affinity chromatography (pulldown) with immobilized probes, HRMS label-free quantification and immunoblotting; format: binding; details: fold excess enriched with active probe 8 vs inactive probe 9
T1 construct: endogenous in cells; host or cells: NIH/3T3
Method: (§2) Supplementary Table S8. List of proteins enriched by the active probe 8 as identified by means of affinity chromatography. […]
(§3) on NHS ester magnetic beads. NIH/3T3 lysate was passed on to the probes and target protein identification was performed employing HRMS analysis as described in the methods section.
(§4) The ratios indicate the fold excess of protein enriched with the active probe 8 as compared to […]
(§5) Apart from filamin –B and –C and RHOGDI1, all enriched proteins were known frequent binders in pulldown assays.
(§6) Protein name Gene symbol Ratio
(§7) RHO GDP-dissociation inhibitor 1 Arhgdia 33
(§8) Guanine nucleotide -binding protein subunit beta -2-like
(§9) 1;Guanine nucleotide -binding protein subunit beta -2-like 1, N- Gnb2l1 6 […]
(§10) ATPase inhibitor, mitochondrial Atpif1 4
(§11) Hsc70-interacting protein St13 4
(§12) Tropomyosin alpha -4 chain Tpm4 4
(§13) Ribosome-recycling factor, mitochondrial Mrrf 3
(§14) (1 picture or pasted object on this page, not shown here) […]
(§15) intensities was performed by densitometry of scanned signals with the aid of image studio software (Version 4.0.21, LI-COR Biosciences, ©2014). […]
(§16) Cell lysate preparation for chemical proteomics
(§17) NIH/3T3 cells were grown to 90-95% confluence and were then detached using cell dissociation solution for 5 min at 37 °C and 5% CO2. Cells were suspended in cell culture medium and pelleted by centrifugation at 250 x g, 5 min at 4 °C. Cell pellets were then washed thrice with ice-cold PBS and lysed in lysis buffer containing 50 mM PIPES, 50 mM NaCl, 5 mM MgCl2, 5 mM EGTA, 0.1 % NP40, 0.1 % Triton X-100, 0.1 % Tween®20, with freshly added 1 mM DTT, EDTA-free protease inhibitors (Complete EDTA-free, Roche) and phosphatase inhibitors (PhosphoSTOP, Roche). To assure complete cell lysis, the suspension was passed through […] cannula 10 times each and incubated on ice for 40 min with intermittent vortexing every five minutes until a homogeneous mixture was obtained.
(§18) The resulting homogenate was centrifuged at 18,000 x g for 30 min at 4 °C and the supernatant was subsequently snap frozen in liquid nitrogen and stored at -80 °C. Total protein content was determined by DC protein assay (Bio-Rad, Germany).
(§19) Affinity chromatography enrichment of compound-bound proteins
(§20) 25 µL N-hydroxysuccinimide magnetic beads (GE Healthcare) were activated with 500 µL 1 mM HCl for 1 min. HCl was replaced by 500 µL coupling buffer (0.15 M triethanolamine, […]
(§21) incubated for 2 h at room temperature with overhead rotation. The residual active groups of N-hydroxysuccinimide magnetic were quenched by alternating incubation with 500 µL block A buffer (0.5 M ethanolamine, 0.5 M NaCl, pH 8.3) and block B buffer (0.1 M sodium acetate, 0.5 M NaCl, pH 4.0) for 5 min three times each. For protein binding, the magnetic beads were equilibrated with 500 µL lysis buffer followed by incubation with 500 µL lysate (protein concentration: 2 mg/mL) 2 h at 4 °C with overhead rotation. In order to wash out non-specifically bound proteins, the beads were first washed with 500 µL lysis buffer containing 25 mM MgCl2 followed by three times washing with 500 µL PBS. Tryptic digestion of bead-bound proteins was carried out in two stages. First, bound proteins were reduced by incubating the beads with 50 µL reducing buffer (1 mM DTT, 8 M urea in 50 mM Tris (pH 7.5)) at 30 °C for 30 min with shaking. Later, the reduced proteins were alkylated by addition of 5.5 µL alkylating solution (1 mM DTT, 50 mM chloroacetamide, 8 M urea in 50 mM Tris pH 7.5) and further incubation in the dark at 30 °C for 30 min while shaking at 350 rpm. The reduced and alkylated proteins were digested by adding 1 µg LysC at 37 °C for 1 h while shaking at 350 rpm. The supernatant was transferred to a new tube and the beads were further incubated with 50 mM Tris-HCl (pH 7.5) containing 1 µg trypsin at 37 °C for 1 h while shaking at 350 rpm.
(§22) Both supernatants were combined together and further digested by adding 2 µg trypsin for 16 h at 37 °C with continuous shaking. The enzymatic digestion was stopped by addition of 2 µL […]

NIH/3T3 lysate proteins [2] = test: as above; format: binding
Method: as §2, §3, §4, §5, §6, §7, §8, §9, §10, §11, §12, §13, §14, §15, §16, §17, §18, §19, §20, §21, §22

[3] = fold excess enriched with active probe 8 vs inactive probe 9

T1 sequence (Q99PT1 2-204): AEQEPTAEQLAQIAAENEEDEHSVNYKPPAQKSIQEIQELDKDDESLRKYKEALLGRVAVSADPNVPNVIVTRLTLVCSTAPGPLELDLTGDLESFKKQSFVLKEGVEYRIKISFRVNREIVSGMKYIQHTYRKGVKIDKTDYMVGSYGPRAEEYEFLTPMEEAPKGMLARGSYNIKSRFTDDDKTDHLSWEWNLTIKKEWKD

IC50 (Shh-LIGHT2 cells): 8 µM | IC50 (C3H/10T1/2 cells): 6.2 ± 1.3 µM
Compound: COC(=O)C1(CCC(C)=O)N=C(c2ccc(Br)cc2)C2C(=O)N(C)C(=O)C21 (stereo not drawn) [7c]
Inhibition of Hh-/purmorphamine-induced osteogenesis (in words) (C3H/10T1/2 cells; C3H/10T1/2 cells, purmorphamine): active

Compound: CS(=O)(=O)c1ccc(C(=O)Nc2ccc(Cl)c(-c3ccccn3)c2)c(Cl)c1 [Vismodegib]
Potency in osteogenesis in presence of 0.1 μM vs 1 μM SAG (in words) (C3H10T1/2 cells): decreased potency

IC50 (Shh-LIGHT2 cells): 6.15 µM | IC50 (C3H/10T1/2 cells): 3.13 ± 0.2 µM
Compound: COC(=O)C1(C=CC(=O)c2ccccc2)N=C(c2ccc(Br)cc2)C2C(=O)N(C)C(=O)C21 (stereo not drawn) [7g]

IC50 (Shh-LIGHT2 cells): 4.24 µM | IC50 (C3H/10T1/2 cells): 2.81 ± 0.4 µM
Compound: COC(=O)C1(CCC(=O)C=Cc2ccccc2)N=C(c2ccc(Br)cc2)C2C(=O)N(C)C(=O)C21 (stereo not drawn) [7e]

Ratio, RHO GDP-dissociation inhibitor 1 (Arhgdia) (NIH/3T3 lysate proteins [1]): 33 | Ratio, ATPase inhibitor, mitochondrial (Atpif1) (NIH/3T3 lysate proteins [2]; [3]): 4 | Ratio, Guanine nucleotide-binding protein subunit beta-2-like 1 (Gnb2l1) (NIH/3T3 lysate proteins [2]; [3]): 6
Compound: COC(=O)C1(C(CC(=O)c2ccccc2)c2ccc(C(=O)NCCOCCOCCN)cc2)N=C(c2ccc(Br)cc2)C2C(=O)N(C)C(=O)C21 (stereo not drawn) [compound 8]
Ratio, 60S ribosomal protein L32 (Rpl32) (NIH/3T3 lysate proteins [2]; [3]): 9 | Ratio, Filamin-B (Flnb) (NIH/3T3 lysate proteins [2]; [3]): 36 | Ratio, Filamin-C (Flnc) (NIH/3T3 lysate proteins [2]; [3]): 27 | Ratio, Hsc70-interacting protein (St13) (NIH/3T3 lysate proteins [2]; [3]): 4 | Ratio, Ribosome-recycling factor, mitochondrial (Mrrf) (NIH/3T3 lysate proteins [2]; [3]): 3 | Ratio, Tropomyosin alpha-4 chain (Tpm4) (NIH/3T3 lysate proteins [2]; [3]): 4 | Enrichment of proteins by probe, immunoblotting after pulldown (in words) (NIH/3T3 lysate proteins [2]; probe 8 compared with control probe 9, NIH/3T3 lysates): selective enrichment of RHOGDI1
